This series addresses IRF4. The following applies: ASO.

“And” between values parts separate entries of the source, which are not always exact repeats. Equal values may be shown once. After the bases stand the sugars from the 5' end (letter, count) and the backbone: PS all phosphorothioate, else s phosphorothioate and o phosphodiester by linkage. Methylation of C is not given here. e = 2'-O-(2-methoxyethyl) (MOE); k = constrained ethyl (cEt); d = 2'-deoxy (DNA)

As to ACCTGCATCGAGATCA (sugars k3 d10 k3, PS), for the setting “SK-MEL-28, 4 µM”, the target mRNA inhibition came out at 53%. In the case of “ACCTCAGTTTGTGAAG (sugars kkdddddddddekeke, PS)”, the target mRNA inhibition (MM.1R, 1 µM) came out at 13%. As to TGGCTAGCAGAGGTTC (sugars k4 d8 k4, PS), the target mRNA inhibition (SK-MEL-28, 4 µM) was 9%. Same read-out and setting: for GATTGATGTGATAGCT (sugars k3 d10 k3, PS) the value was 56%. With CAGTTGTAAATGAGTC (sugars k3 d10 k3, PS), for the setting “SK-MEL-28, 4 µM”, the target mRNA inhibition is 89% and 86%.

Take “ACACTTTTAGAGAGGA (sugars e1 k2 d9 k2 e2, PS)”: where the note is “MM.1R, 1 µM”, the target mRNA inhibition is 29%.

For the sequence CCTGATGCCTCCGCCG (sugars k3 d10 k3, PS), the target mRNA inhibition (MM.1R, 1 µM) was 6%. Consider TCTTCCAGCAAGACCT (sugars k3 d10 k3, PS), for which the target mRNA inhibition (SK-MEL-28, 4 µM) worked out at 28%. On the same count and under the same terms, for CCAGGAAACCGCTGGC (sugars k3 d10 k3, PS) the value was 38%.

In the case of CCAAATTCCCGGAGGA (sugars k3 d10 k3, PS), the target mRNA inhibition (MM.1R, 1 µM) is -25%. Take “CAAGTGTCTAAAGTCC (sugars kdddddddddkekeke, PS)”: for the setting “MM.1R, 1 µM”, the target mRNA inhibition was 11% and 10%. In the case of CTTTGAGGCTGCGAAG (sugars k3 d10 k3, PS), where the note is “MM.1R, 1 µM”, the target mRNA inhibition is 2%.

Consider AATGAAGATCCACTAG (sugars k3 d10 k3, PS), for which, for the setting “SK-MEL-28, 4 µM”, the target mRNA inhibition was found to be 61%. “TCAGTTTGTGAAGCAT (sugars kkddddddddddkeke, PS)”: the target mRNA inhibition (MM.1R, 1 µM) turned out to be 33%. In the case of GACATACCTACAAGCA (sugars k3 d10 k3, PS), for the setting “SK-MEL-28, 4 µM”, the target mRNA inhibition was 50%. For TTACACCCAGAAGTAC (sugars k3 d10 k3, PS), under “SK-MEL-28, 4 µM”, the target mRNA inhibition turned out to be 5%. With TTCCTGTAACAGGCTA (sugars k3 d10 k3, PS), for the setting “SK-MEL-28, 4 µM”, the target mRNA inhibition was 63% and 77%. Take “ACTGCTTGAGGTTTTC (sugars k2 d9 e3 k2, PS)”: the target mRNA inhibition (MM.1R, 1 µM) worked out at 45%. As to “AAGCATTTTATCATCC (sugars kkddddddddddkeke, PS)”, the target mRNA inhibition (MM.1R, 1 µM) was 20%.

With TTTATGCCCTCGCTCA (sugars k3 d10 k3, PS), the target mRNA inhibition (SK-MEL-28, 4 µM) was determined as 24%. Turning to GTGAAACAGCAGTTCT (sugars k3 d10 k3, PS), the target mRNA inhibition (SK-MEL-28, 4 µM) stood at 62%. On to CATGGTTACTAATTCC (sugars k3 d10 k3, PS), for which the target mRNA inhibition (MM.1R, 1 µM) amounted to 25%.

For GCTAAAGGAGTGCAGG (sugars k3 d10 k3, PS), the target mRNA inhibition (SK-MEL-28, 4 µM) was 7%. Still for that read-out and setting: for AATAAGCTCATCTGCC (sugars k3 d10 k3, PS) the value was 36%. Still for that read-out and setting: for GCATAGGTCCTTCAGA (sugars k3 d10 k3, PS) the value was 31%.

Take “GGTTGGCTGGTCTTTG (sugars kkdddddddddekeke, PS)”: the target mRNA inhibition is, setting by setting: (MM.1R, 0.0625 µM) 34%; (MM.1R, 0.25 µM) 47%; (MM.1R, 1 µM) 73% and 66%; (MM.1R, 4 µM) 84%. With GCATGACAGGGCGAGG (sugars k3 d10 k3, PS), the target mRNA inhibition (SK-MEL-28, 4 µM) worked out at 43%. As for TTACCGCATTGCTAGA (sugars k3 d10 k3, PS), where the note is “MM.1R, 1 µM”, the target mRNA inhibition was 13% and 26%. GCCGAACTCTCCGCCT (sugars k3 d10 k3, PS): the target mRNA inhibition (SK-MEL-28, 4 µM) is 51%.

As for “GGGATTATATACTGGT (sugars kkdddddddddkdkdk, PS)”, the target mRNA inhibition (MM.1R, 1 µM) turned out to be 41%.

Take CGCTCAGGACTCAGGG (sugars k3 d10 k3, PS): the target mRNA inhibition (SK-MEL-28, 4 µM) stood at 55%. In the case of “GAAGCATTTTATCATC (sugars kkddddddddddkeke, PS)”, the target mRNA inhibition (MM.1R, 1 µM) is -7%. Consider TGTTACTTTCAAATCG (sugars k3 d10 k3, PS), for which, where the note is “SK-MEL-28, 4 µM”, the target mRNA inhibition was determined as 48%. The same measure, in the same setting: for ACAAGCATAAAAGGTT (sugars k3 d10 k3, PS) the value was 4%.

Take “AGTGATGTCAGGTTTT (sugars kkkddddddddkekek, PS)”: the target mRNA inhibition (MM.1R, 1 µM) came to 37%. Regarding CCCTTATTAGACTGAC (sugars k3 d10 k3, PS), the target mRNA inhibition (SK-MEL-28, 4 µM) stood at 67%. As for CAGAGCTCCGGAGTCA (sugars k3 d10 k3, PS), the target mRNA inhibition (MM.1R, 1 µM) was -6%. As for GTACATGGCAGTGGAG (sugars k3 d10 k3, PS), the target mRNA inhibition (SK-MEL-28, 4 µM) came out at 56%.

Consider GCCAAGGATAACCTGA (sugars k3 d10 k3, PS), for which the target mRNA inhibition (MM.1R, 0.0625 µM) was determined as 1%; the target mRNA inhibition (MM.1R, 0.074 µM) was 0%; the target mRNA inhibition (MM.1R, 0.222 µM) amounted to 5%; the target mRNA inhibition (MM.1R, 0.25 µM) was found to be 10%; the target mRNA inhibition (MM.1R, 0.666 µM) is 13%; the target mRNA inhibition (MM.1R, 1 µM) turned out to be 27%. Besides, the target mRNA inhibition came out at 37% (MM.1R, 2 µM); 59% (MM.1R, 4 µM); 69% (SK-MEL-28, 4 µM).

Consider AAATATACCAGCTCAA (sugars k3 d10 k3, PS), for which the target mRNA inhibition (SK-MEL-28, 4 µM) was found to be 25%.

Turning to ACCTTATGCTTGGCTC (sugars k3 d10 k3, PS), the target mRNA inhibition (SK-MEL-28, 4 µM) stood at 31%.

On to CTCATAGGTGTACACG (sugars k3 d10 k3, PS), for which the target mRNA inhibition (SK-MEL-28, 4 µM) came out at 59%.

The values above are taken from the OligoGym collection.
